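Cells were grown in 96-well plates and exposed to each compound for 48 hours at five concentrations; endpoints were interpolated linearly between bracketing concentrations, or set to the highest concentration if not reached. Abbreviation: GI50, concentration required for 50% inhibition of growth. TGI marks complete inhibition of growth.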
What was measured:
Experiment in all cases: inhibition of tumour cell growth, NCI panel, 48 h
A498 renal = tested on: A498 renal
HCT-116 colon = tested on: HCT-116 colon
HCT-15 colon = tested on: HCT-15 colon
HT29 colon = tested on: HT29 colon
SF-268 CNS = tested on: SF-268 CNS
SK-MEL-2 melanoma = tested on: SK-MEL-2 melanoma
T-47D breast = tested on: T-47D breast
HCC-2998 colon = tested on: HCC-2998 colon

| SMILES | TGI (A498 renal) [µM] | TGI (HCT-116 colon) [µM] | TGI (HCT-15 colon) [µM] | TGI (HT29 colon) [µM] | TGI (SF-268 CNS) [µM] | TGI (SK-MEL-2 melanoma) [µM] | TGI (T-47D breast) [µM] | GI50 (A498 renal) [µM] | GI50 (HCC-2998 colon) [µM] | TGI (HCC-2998 colon) [µM] | GI50 (HCT-116 colon) [µM] | GI50 (HCT-15 colon) [µM] | GI50 (HT29 colon) [µM] | GI50 (SF-268 CNS) [µM] | GI50 (T-47D breast) [µM] | GI50 (SK-MEL-2 melanoma) [µM] |
| --- | --- | --- | --- | --- | --- | --- | --- | --- | --- | --- | --- | --- | --- | --- | --- | --- |
| O=C1c2ccccc2C(O)(O)C1(O)C1(O)C(=O)c2ccccc2C1(O)O (stereo not given) | > 100 | 54.1 | 44.1 | > 100 | > 100 | > 100 | 60.3 |  |  |  |  |  |  |  |  |  |
| CCC1C2Cc3ccc(O)cc3C1(CC)CCN2C (stereo not given) | > 100 | > 100 | > 100 | > 100 | > 100 | > 100 | > 100 |  |  |  |  |  |  |  |  |  |
| COc1cc([N+](=O)[O-])c(OC)cc1-c1nc2sc(Cl)cn2c1/C(N)=N/C(=N)N | 48.6 | 6.41 | > 100 | > 100 | 11.8 |  | 5.63 | 20.7 | 1.99 | 4.15 | 2.41 | 65 | 3.02 | 4.17 | 2.31 |  |
| CC(C)(C)n1cc(-c2ccnc(NCCCNS(=O)(=O)c3ccc(C(F)(F)F)cc3)c2)c(-c2cccc(O)c2)n1 | 4.2 | 3.08 | 2.93 |  |  | 3.95 | 6.61 | 1.54 | 1.82 | 3.25 | 1.55 | 1.47 |  |  | 2.24 | 2.1 |
| COc1cnc2c(c1)C(=O)c1c-2n(CCCn2ccnc2)c(=O)c2cc(F)ccc12 | 0.218 | 0.141 | 1.56 | 0.226 |  | 0.449 |  | 0.0508 | 0.361 | 79.5 | < 0.01 | 0.155 | 0.013 |  |  | 0.232 |
| COc1cc2c(cc1C)NC(=O)/C2=C/c1ccccn1 | 8.25 | > 100 |  | > 100 | 24.6 | > 100 | > 100 | 3.61 |  |  | 2.53 |  | 5.47 | 3.28 | 19.3 | > 100 |
| O=C(O)C(/C=C/c1ccccc1)c1ccccc1 (stereo not given) | > 100 | > 100 | > 100 | > 100 | > 100 | > 100 | > 100 |  |  |  |  |  |  |  |  |  |
| C=C1C(=O)O[C@H]2[C@H]1CC/C(COC(=O)NCc1cn(C)c3ccccc13)=C\CC[C@@]1(C)O[C@@H]21 | 12.1 | 1.07 | 2.17 | 3 | 4.95 | 7.79 |  | 3.21 | 2.3 | 5.33 | 0.288 | 0.611 | 1.22 | 1.84 |  | 2.55 |
| N#CC(NC12CC3CC(CC(C3)C1)C2)c1ccc2c(c1)OCO2 (stereo not given) |  | > 100 | > 100 | > 100 | > 100 | > 100 | > 100 |  |  | > 100 |  |  |  |  |  |  |
| COC(=O)C1(C)CCC(c2ccc(C)cc2)=C(CC(=O)O)C1 (stereo not given) | > 100 | > 100 | > 100 | > 100 | > 100 | > 100 | > 100 |  |  |  |  |  |  |  |  |  |
| O=C([CH-]C(=O)c1ccccc1)c1ccccc1.O=C([CH-]C(=O)c1ccccc1)c1ccccc1.[La+3].[OH-].[OH3+] | 87.7 | 29.6 | 48.1 | 50.1 | 59.5 | 37.8 |  | 17.9 | 16.1 | 48.1 | 7.89 | 13 | 19.4 | 13.3 |  | 15.1 |
| COc1ccc(-c2c[nH]c(C(=O)O)c2-c2cc(OC)c(OC)c(OC)c2)cc1 | 6.67 | > 100 | > 100 | > 100 | > 100 | > 100 |  | 1.56 | 7.53 | > 100 | 5.02 | 3.66 | 3.29 | > 100 |  | 5.45 |
| Fc1ccc2c(c1)C1=NN(c3ccccc3)C(F)C1CO2 (stereo not given) | 21 | > 50 | 19.9 | 26.3 | 23.2 | > 50 |  | 11.4 |  |  | 10.7 | 8.19 | 10 | 7.52 |  | 19.4 |
| CC(=O)OCC1OC(n2cnc(C(N)=S)c2N)C(OC(C)=O)C1OC(C)=O (stereo not given) |  | > 100 | > 100 | > 100 | > 100 | > 100 | > 100 |  |  | > 100 |  |  |  |  |  |  |
| C=C(C)C(=O)O[C@H]1CC(=C)[C@@H]2C[C@H](O)[C@](O)(CCl)[C@@H]2[C@H]2OC(=O)C(=C)[C@@H]21 | 26.7 | 3.19 | 4.42 | 7.42 | 17.4 | 22 |  | 12.8 | 17.6 | 32.4 | 1.67 | 1.89 | 2.89 | 3.76 |  | 6.59 |
